Measurements taken from patent publication US9062040B2 (priority 2009, dated 2015).
Like-named read-outs stand apart in the source and are kept apart here.

Key:
Phytophthora infestans [1] = type: in vivo
Phytophthora infestans [2] = type: in vivo; details: Table E
[3] = system: Pseudoperonospora cubensis; test: Test J: cucumber downy mildew, spray before inoculation, cucumber seedlings, mixtures with Colby expected values; type: in vivo; details: Table C
Source text: General protocol for preparing test compositions for Tests I-K: Amisulbrom was formulated and ametoctradin was obtained as unformulated, technical-grade materials. Compound 1 were formulated as an oil dispersion containing a mixture of POE (polyoxyethylene) 40 sorbitol hexaoleate, POE 20 sorbitan trioleate, and alkyl-peg resin surfactants in a liquid carrier consisting of a distilled C18 fatty acid methyl ester. Ametoctradin was first dissolved in acetone and then suspended at the desired concentration (in ppm) in acetone and purified water (50/50 mix by volume) containing 250 ppm of the surfactant Trem® 014 (polyhydric alcohol esters). Amisulbrom was dispersed in sufficient water to give the desired concentration, and neither organic solvent nor surfactant was added to the suspension. The resulting test mixtures were then used in Tests I-K. Spraying a 200 ppm test mixture to the point of run-off on the test plants was the equivalent of a rate of 800 g/ha. The tests were replicated three times and the results reported as the mean average of the three replicates.
The presence of a synergistic effect between two active ingredients was established with the aid of the Colby equation (see Colby, S. R. “Calculating Synergistic and Antagonistic Responses of Herbicide Combinations”, Weeds, (1967), 15, 20-22):
Using the method of Colby, the presence of a synergistic interaction between two active ingredients is established by first calculating the predicted activity, p, of the mixture based on activities of the two components applied alone. If p is lower than the experimentally established effect, synergism has occurred. In the equation above, A is the fungicidal activity in percentage control of one component applied alone at rate x. The B term is the fungicidal activity in percentage control of the second component applied at rate y. The equation estimates p, the expected fungicidal activity of the mixture of A at rate x with B at rate y if their effects are strictly additive and no interaction has occurred.
The test mixture was sprayed to the point of run-off on cucumber seedlings. The following day the seedlings were inoculated with a spore suspension of Pseudoperonospora cubensis (the causal agent of cucumber downy mildew) and incubated in saturated atmosphere at 20° C. for 24 h, and moved to a growth chamber at 20° C. for 6 days, after which time disease ratings were made.
Results for Tests I to K are given in Tables C-E. Each table corresponds to a set of evaluations performed together at the same time. In each table, a rating of 100 indicates 100% disease control and a rating of 0 indicates no disease control (relative to the controls). Columns labeled “Obsd” indicate the average of results observed from three replications. Columns labeled “Exptd” indicate the expected value for each treatment mixture using the Colby equation.

[4] = Stability experiments for solid forms of Compound 1 (temperature and humidity, XRPD); type: physicochemical
Source text: The physical stability of polymorph Form A was characterized. […] Samples of Form A exposed to 53, 75, and 85% relative humidity at ambient temperature (10 days) were also unchanged, as determined by XRPD.
The physical stability of polymorph Form B was characterized.
The physical stability of the amorphous material was characterized.

[5] = Relative stability experiments for polymorph Form A and Form B (DSC heat of fusion rule, competitive interconversion); type: physicochemical
Protocol: Differential scanning calorimetry was performed on a Thermal Analysis Q2000 Differential Scanning Calorimeter. A sample (2.3 mg) was placed in an aluminum DSC pan. The sample cell was heated under a nitrogen purge at 10° C./minute. Indium metal was used as the calibration standard.
The relative stability of polymorphic Forms A and B of Compound 1 was characterized with Differential Scanning Calorimetry and a competitive interconversion experiment. Phase transitions of solids can be thermodynamically reversible or irreversible. Crystalline polymorphs which transform reversibly at a specific transition temperature (Ttr) are called enantiotropic polymorphs. If the crystalline polymorphs are not interconvertable, the system is monotropic (i.e. one polymorph is thermodynamically stable relative to the other over the entire temperature range up to melting). The relationship between forms can be determined by the application of the heat of fusion rule (Burger, A.; Ramberger, R. Mikrochim. Acta [Wein], 1979 II, 259-271). The rule states that if the higher melting form has the lower heat of fusion, then the two forms are enantiotropic. Otherwise, they are monotropic.
To support this conclusion, a competitive interconversion experiment between polymorph Forms A and B was performed in ethanol at room temperature. […]

[6] = Table C, component (b) alone 0.08 ppm
[7] = Table C, component (b) alone 0.4 ppm
[8] = Table C, component (b) alone 2 ppm
[9] = Table C, component (b) alone 10 ppm
[10] = Table C, component (b) alone 40 ppm
[11] = Table D, component (b) alone 0.08 ppm
[12] = Table D, component (b) alone 0.4 ppm
[13] = Table D, component (b) alone 2 ppm
[14] = Table D, component (b) alone 10 ppm

Row | Compound | stability of the pure solid form (summary of Characterization Example 4) [4] | Test I Obsd (Phytophthora infestans [1]; [6]) [%] | Test I Obsd (Phytophthora infestans [1]; [7]) [%] | Test I Obsd (Phytophthora infestans [1]; [8]) [%] | Test I Obsd (Phytophthora infestans [1]; [9]) [%] | Test I Obsd (Phytophthora infestans [1]; [10]) [%] | Test I Obsd (Phytophthora infestans [1]; [11]) [%] | Test I Obsd (Phytophthora infestans [1]; [12]) [%] | Test I Obsd (Phytophthora infestans [1]; [13]) [%] | Test I Obsd (Phytophthora infestans [1]; [14]) [%] | Test K Obsd (Phytophthora infestans [2]; component (b) alone 0.4 ppm) [%] | Test K Obsd (Phytophthora infestans [2]; component (b) alone 2 ppm) [%] | Test K Obsd (Phytophthora infestans [2]; component (b) alone 10 ppm) [%] | Test K Obsd (Phytophthora infestans [2]; component (b) alone 40 ppm) [%] | Test K Obsd (Phytophthora infestans [2]; component (b) alone 200 ppm) [%] | Test J Obsd ([3]; component (b) alone 0.08 ppm) [%] | Test J Obsd ([3]; component (b) alone 0.4 ppm) [%] | Test J Obsd ([3]; component (b) alone 2 ppm) [%] | Test J Obsd ([3]; component (b) alone 10 ppm) [%] | Test J Obsd ([3]; component (b) alone 40 ppm) [%] | further results
1 | Cc1cc(C(F)(F)F)nn1CC(=O)N1CCC(c2nc(C3=NOC(c4c(F)cccc4F)C3)cs2)CC1 (racemic) [Compound 1, 1-[4-[4-[5-(2,6-difluorophenyl)-4,5-dihydro-3-isoxazolyl]-2-thiazolyl]-1-piperidinyl]-2-[5-methyl-3-(trifluoromethyl)-1H-pyrazol-1-yl]ethanone] | – | – | – | – | – | – | – | – | – | – | – | – | – | – | – | – | – | – | – | – | Test I Obsd (Phytophthora infestans [1]; Table C, Compound 1 alone 0.00001 ppm): 39%; Test I Obsd (Phytophthora infestans [1]; Table C, Compound 1 alone 0.0001 ppm): 63%; Test I Obsd (Phytophthora infestans [1]; Table C, Compound 1 alone 0.001 ppm): 72%; Test I Obsd (Phytophthora infestans [1]; Table C, Compound 1 alone 0.01 ppm): 100%; Test I Obsd (Phytophthora infestans [1]; Table C, Compound 1 alone 0.1 ppm): 100%; Test I Obsd (Phytophthora infestans [1]; Table D, Compound 1 alone 0.00001 ppm): 0%; Test I Obsd (Phytophthora infestans [1]; Table D, Compound 1 alone 0.0001 ppm): 0%; Test I Obsd (Phytophthora infestans [1]; Table D, Compound 1 alone 0.001 ppm): 80%; Test I Obsd (Phytophthora infestans [1]; Table D, Compound 1 alone 0.01 ppm): 93%; Test I Obsd (Phytophthora infestans [1]; Table D, Compound 1 alone 0.1 ppm): 100%; Test K Obsd (Phytophthora infestans [2]; Compound 1 alone 0.001 ppm): 0%; Test K Obsd (Phytophthora infestans [2]; Compound 1 alone 0.01 ppm): 17%; Test K Obsd (Phytophthora infestans [2]; Compound 1 alone 0.1 ppm): 80%; Test K Obsd (Phytophthora infestans [2]; Compound 1 alone 1 ppm): 99%; Test K Obsd (Phytophthora infestans [2]; Compound 1 alone 10 ppm): 100%; Test J Obsd ([3]; Compound 1 alone 0.00001 ppm): 17%; Test J Obsd ([3]; Compound 1 alone 0.0001 ppm): 47%; Test J Obsd ([3]; Compound 1 alone 0.001 ppm): 40%; Test J Obsd ([3]; Compound 1 alone 0.01 ppm): 94%; Test J Obsd ([3]; Compound 1 alone 0.1 ppm): 100%
2 | Cc1cc(C(F)(F)F)nn1CC(=O)N1CCC(c2nc(C3=NOC(c4c(F)cccc4F)C3)cs2)CC1 (racemic) [polymorph Form A, 1-[4-[4-[5-(2,6-difluorophenyl)-4,5-dihydro-3-isoxazolyl]-2-thiazolyl]-1-piperidinyl]-2-[5-methyl-3-(trifluoromethyl)-1H-pyrazol-1-yl]ethanone] | physically stable and non-hydrated | – | – | – | – | – | – | – | – | – | – | – | – | – | – | – | – | – | – | – | physical stability by XRPD ([4]; exposed to 53, 75, and 85% relative humidity at ambient temperature (10 days)): unchanged; physical stability by XRPD ([4]; maintained at 40, 60, and 80° C. for 4 days): remained unchanged
3 | Cc1cc(C(F)(F)F)nn1CC(=O)N1CCC(c2nc(C3=NOC(c4c(F)cccc4F)C3)cs2)CC1 (racemic) [polymorph Form B, 1-[4-[4-[5-(2,6-difluorophenyl)-4,5-dihydro-3-isoxazolyl]-2-thiazolyl]-1-piperidinyl]-2-[5-methyl-3-(trifluoromethyl)-1H-pyrazol-1-yl]ethanone] | – | – | – | – | – | – | – | – | – | – | – | – | – | – | – | – | – | – | – | – | physical stability by XRPD ([4]; exposed to 85% relative humidity at ambient temperature (10 days)): unchanged; physical stability by XRPD ([4]; maintained at 40° C. and 25° C. for 4 days): remained unchanged; relative stability by heat of fusion rule from DSC data ([5]; DSC data of Characterization Example 3, forms monotropically related): most stable form throughout the temperature range up to the melt; relative stability, competitive interconversion experiment ([5]; equal amounts of Forms A and B in saturated ethanol, room temperature, stirred 4 days, solids identified by XRPD): more stable than polymorph Form A
4 | CCCCCCCCc1c(CC)nc2ncnn2c1N [Ametoctradin, ametoctradin] | – | 8 | 23 | 63 | 83 | 83 | 9 | 0 | 0 | 94 | 0 | 0 | 0 | 0 | 0 | 0 | 0 | 0 | 26 | 95 | Test I Obsd (Phytophthora infestans [1]; Table D, component (b) alone 40 ppm): 93%
5 | Cc1c(Br)c2ccc(F)cc2n1S(=O)(=O)c1ncn(S(=O)(=O)N(C)C)n1 [Amisulbrom, amisulbrom] | – | 57 | 52 | 82 | 100 | 100 | 9 | 63 | 85 | 86 | 0 | 0 | 0 | 0 | 0 | 0 | 0 | 95 | 100 | 100 | Test I Obsd (Phytophthora infestans [1]; Table D, component (b) alone 0.016 ppm): 0%
6 | Cc1cc(C(F)(F)F)nn1CC(=O)N1CCC(c2nc(C3=NOC(c4c(F)cccc4F)C3)cs2)CC1 (stereo not drawn) [Amorphous Compound 1, 1-[4-[4-[5-(2,6-difluorophenyl)-4,5-dihydro-3-isoxazolyl]-2-thiazolyl]-1-piperidinyl]-2-[5-methyl-3-(trifluoromethyl)-1H-pyrazol-1-yl]ethanone] | stable and non-hydrated | – | – | – | – | – | – | – | – | – | – | – | – | – | – | – | – | – | – | – | physical stability by XRPD ([4]; elevated temperatures (60, 80 and 100° C.) and humidities (75 and 85% relative humidity) for 10-12 days): remained unchanged
